The results in this text go back to patent US12590118B2, “Salt and crystal form of steroid derivative regulator” (Shanghai Hansoh Biomedical Co., Ltd., priority 2019, dated 2026).

SMILES strings stand for the structures.

The target in one assay is GABA-A receptor. Description: 35S-TBPS binding assay (GABAA receptor binding ability assay). The arrangement: species or system Sprague-Dawley rat. As to conditions: rat cerebral cortex cell membrane, 5 μM GABA, 2 nM 35S-TBPS; read-out: IC50 on inhibiting the TBPS binding activity, 35S-TBPS bindng assay. In short, it runs like this:
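Male Sprague-Dawley rat cerebral cortex membranes in PBS, preincubated with compound (1% DMSO, 8-point 3-fold series) 5 min at 25° C, then GABA 5 μM final 5 min, then 2 nM 35S-TBPS for 20 h at 4° C. Bound radioactivity filtered on PEI-treated GF/C and counted. % inhibition relative to DMSO and 10 μM P026-2 controls; IC50 from 4-parameter fit.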

For another assay, the system named is ICR mice. As to the kind of experiment: Forced swimming model in mice. In kind it is in vivo. As to conditions: for Mean (immobility, %): floating time/240 s; for immobility time during the latter four minutes compared with that of the model group: forced swimming, ICR mice. Summed up: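 Male ICR mice (25-35 g), 12 per group, dosed intragastrically at brain Tmax with 10 mg/kg or 5 mg/kg p.o. in 0.5% CMC-Na + 1% Tween 80. Forced swim 0.5-1 h post-dose for 6 min in 25-26° C. water, 18 cm deep. Immobility over last 4 min, given as floating time percentage of 240 s.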

By IC50 is commonly meant the concentration at which inhibition is half-maximal. For the compound `C[C@@H]1C[C@H](C(=O)Cn2ccc(C#N)n2)[C@@]2(C)CC[C@H]3[C@@H](CC[C@@H]4C[C@](C)(O)CC[C@@H]43)[C@H]12` [Example 40, 1-(2-((3R,5R,8R,9R,10S,13S,14S,15R,17S)-3-Hydroxy-3,13,15-trimethylhexadecahydro-1H-cyclopenta[a]phenanthren-17-yl)-2-oxoethyl)-1H-pyrazole-3-carbonitrile], the half-maximal inhibitory concentration (IC50) at GABA-A receptor turned out to be 8.2 nM. Further, the “Mean (immobility, %)” value in the assay on ICR mice (dose 10 mpk p.o.) worked out at 35.30%. Moreover, the “Mean (immobility, s)” value with ICR mice (dose 10 mpk p.o., latter four minutes of 6 min swim) was 84.90 s. Moreover, the “immobility time during the latter four minutes compared with that of the model group” value in the assay with ICR mice is “very significantly different”.
Regarding `C[C@@]1(O)CC[C@H]2[C@H](CC[C@@H]3[C@@H]2CC[C@@]2(C)[C@H]3[C@@H]3C[C@@H]3[C@@H]2C(=O)Cn2ccc(C#N)n2)C1` [Example 2, 1-(2-((2R,4aS,4bR,6aS,7S,7aS,8aR,8bR,8cR,10aR)-2-Hydroxy-2,6a-dimethyloctadecahydrocyclopropa[4,5]cyclopenta[1,2-a]phenanthren-7-yl)-2-oxoethyl)-1H-pyrazole-3-carbonitrile], at GABA-A receptor, the IC50 was 14.9 nM. Moreover, in the assay on ICR mice (dose 10 mpk p.o.), the “Mean (immobility, %)” value is listed as 28.50%. Moreover, the “immobility time during the latter four minutes compared with that of the model group” value with ICR mice is reported as “very significantly different”.
